Results taken from US9714249B2 (Novartis AG, priority 2013, dated 2017).

Tests used:
BRD3 (His-Brd3(20-477)) = BRD3 (His-Brd3(20-477)) (Homo sapiens (Human), UniProt Q15059); assay: TR-FRET in-vitro binding assay for BRD3; conditions: acetyl-histone H4 peptide
Protocol: All assays were performed in 384 well microtiter plates. Each assay plate contained 8-point serial dilutions for 40 test compounds, plus 16 high- and 16 low controls. Liquid handling and incubation steps were done on an Innovadyne Nanodrop Express equipped with a robotic arm (Thermo CatX, Perkin Elmer/Caliper Twister II) and an incubator (Liconic STX40, Thermo Cytomat 2C450). The assay plates were prepared by addition of 50 nl per well of compound solution in 90% DMSO HummingBird nanodispenser (Zinsser Analytic). The assay was started by stepwise addition of 4.5 μl per well of bromo domain protein (50 mM HEPES, pH 7.5, 0.005% Tween20, 0.1% BSA, 50 mM NaCl, 45 nM His-Brd2(60-472) or 45 nM His-Brd3(20-477) or 45 nM His-Brd4(44-477) all proteins produced in-house) and 4.5 μl per well of peptide solution (50 mM HEPES, pH 7.5, 0.005% Tween20, 0.1% BSA, 50 mM NaCl, 60 nM acetyl-histone H4 (AcK 5, 8, 12, 16) (Biosyntan GmbH)). Reactions were incubated at 30° C. for 35 minutes. Subsequently 4.5 μl per well detection mix (50 mM HEPES, pH 7.5, 0.005% Tween20, 0.1% BSA, 50 mM NaCl, 3 nM Eu-labeled anti-His6 antibody, 21 nM streptavidin-allophycocyanin) were added. After 35 minutes incubation at 30° C., plates were measured in a Perkin Elmer EnVision multilabel reader. Concentrations causing 50% inhibition (1050) values were determined from percent inhibition values at different compound concentrations by non-linear regression analysis.
Test compounds were dissolved in DMSO (10 mM) and transferred into 1.4 mL flat bottom or V-shaped Matrix tubes carrying a unique 2D matrix. The stock solutions were stored at […] if not used immediately. For the test procedure the vials were defrosted and identified by a scanner whereby a working sheet was generated that guided the subsequent working steps. Compound dilutions were made in 96 well plates. This format enabled the assay of maximally 40 individual test compounds at 8 concentrations (single points) including 4 reference compounds, if desired (known BET inhibitors from the prior art, for this and other assays of the type disclosed herein). The dilution protocol included the production of “pre-dilution plates”, “master plates” and “assay plates”.
Pre-dilution plates: 96 polypropylene well plates were used as pre-dilution plates. A total of 4 pre-dilution plates were prepared including 10 test compounds each on the plate positions A1-A10, one standard compound at A11 and one DMSO control at A12. All dilution steps were done on a HamiltonSTAR robot. Master plates: 30 μL of individual compound dilutions including standard compound and controls of the 4 “pre-dilution plates” were transferred into a 384 “master plate” including the following concentrations 10000, 3003, 1000, 300, 100, 30, 10 and 3 μM, respectively in 90% of DMSO. Assay plates: Identical “assay plates” were then prepared by pipetting 50 nL each of compound dilutions of the “master plates” into 384-well “assay plates” by means of a HummingBird 384-channel dispenser. These plates were used directly for the assay which was performed in a total volume of 13.55 μL. This led to a final compound concentration of 37, 11, 3.7, 1.1, 0.37, 0.11, 0.037 and 0.011 μM and a final DMSO concentration of 0.37% in the assay. Cell Growth Inhibition Assay

K-562 cells = assay: Cell growth inhibition assay (CellTiter-Glo), K-562; format: cell-based, human; conditions: K-562, 4 days; for GI50: half-maximal growth inhibition; for K-562 TGI: total growth inhibition
Protocol: The human leukemia cell lines MV-4-11, THP-1 and K-562 were employed to characterize the effect of BET inhibitors on cellular proliferation and viability. Cells were obtained from the American Type Culture Collection (ATCC) and cultured at 37° C. in a humidified 5% CO2 incubator in the following media: MV-4-11: DMEM high glucose (Animed #1-26F01-I), 10% FCS (Animed #2-01F26-I), 4 mM L-Glutamine (Animed #5-10K50), 1 mM Sodium Pyruvate (Animed # G03625P), 1× Penicillin-Streptomycin (Animed # F12478P); K-562: Iscove's MEM (Animed #1-28F16-I), 10% FCS (Animed #2-01F26-I), 4 mM L-Glutamine (Animed #5-10K50), 1× Penicillin-Streptomycin (Animed # F12478P); THP-1: RPMI-1640 (Animed #1-41F01-I), 10% FCS (Animed #2-01F26-I), 2 mM L-Glutamine (Animed #5-10K50), 10 mM HEPES (Animed #5-31F100), 1 mM Sodium Pyruvate (Animed # G03625P), 1× Penicillin-Streptomycin (Animed # F12478P). The AML lines MV-4-11 and THP-1 are very sensitive to BET inhibitors and show massive cell death upon BET inhibition (Zuber et al., Nature, 478 (2011), 524-8). Compound-mediated suppression of cell proliferation/viability was assessed by quantification of cellular ATP levels using the CellTiter-Glo (CTG) reagent (Promega). Briefly, cells were seeded in 20 μl fresh medium into 384-well plates, followed by addition of 5 μl medium containing compound dilutions at 5-fold their final intended concentration. Dose-response effects were assessed by 3-fold serial dilutions of the test compound, starting at 10 μM. Following incubation of the cells for 4 days at 37° C. and 5% CO2, the effect of inhibitors on cell viability was quantified following addition of 20 μl CTG and luminescence quantification (integration time: 100 ms) as per vendor manual, using a correspondingly equipped Tecan M200 multi-mode platereader (TECAN, Switzerland). For data analysis, the assay background value determined in wells containing medium, but no cells, was subtracted from all data points. To enable differentiation of cytotoxic from cytostatic compounds, the number of viable cells is assessed relative to that observed at the time of compound addition using a separate cell plate (day 0). The effect of a particular test compound concentration on cell proliferation/viability is expressed as percentage of the background- and day 0-corrected luminescence reading obtained for cells treated with vehicle only (DMSO, 0.1% final concentration), which is set as 100%, whereas that luminescence reading for wells containing medium is set as −100%. Compound concentrations leading to half-maximal (1050) and total growth inhibition (TGI) were determined using standard four parameter curve fitting.

Sequence of BRD3 (His-Brd3(20-477)) (Q15059 20-477, species assumed): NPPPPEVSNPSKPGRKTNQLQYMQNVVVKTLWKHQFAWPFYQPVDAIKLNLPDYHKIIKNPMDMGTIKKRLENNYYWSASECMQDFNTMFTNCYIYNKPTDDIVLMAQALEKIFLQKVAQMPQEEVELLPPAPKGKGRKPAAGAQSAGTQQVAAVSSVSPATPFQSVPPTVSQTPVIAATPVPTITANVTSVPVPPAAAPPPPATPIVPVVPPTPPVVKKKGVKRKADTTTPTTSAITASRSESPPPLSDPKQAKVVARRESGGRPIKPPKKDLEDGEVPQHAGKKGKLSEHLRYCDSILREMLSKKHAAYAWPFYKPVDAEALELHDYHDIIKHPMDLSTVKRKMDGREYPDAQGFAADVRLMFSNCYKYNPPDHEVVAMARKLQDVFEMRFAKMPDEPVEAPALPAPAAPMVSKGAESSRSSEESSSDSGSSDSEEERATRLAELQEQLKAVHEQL

IC50 (BRD3 (His-Brd3(20-477))) [nM] | GI50 (K-562 cells; Homo sapiens, K562, 96 h) [nM] | Structure (SMILES) | K-562 TGI (K-562 cells) [nM] | GI50 (K-562 cells) [nM]
48 | 239 | COc1ccc(-n2nc(C)c3c2C(c2ccc(Cl)cc2)N(c2cc(C)c(=O)n(C)c2)C3=O)cn1 (stereo not drawn) [Example 20b, 6-(4-chlorophenyl)-5-(1,5-dimethyl-6-oxo-1,6-dihydropyridin-3-yl)-1-(6-methoxypyridin-3-yl)-3-methyl-5,6-dihydropyrrolo[3,4-c]pyrazol-4(1H)-one] | >10000 | –
140 | 999 | COc1ncc(-n2nc3c(c2C)C(=O)N(c2cc(Cl)c(=O)n(C)c2)C3c2ccc(Cl)cc2)cn1 (stereo not drawn) [Example 8b, 5-(5-chloro-1-methyl-6-oxo-1,6-dihydropyridin-3-yl)-6-(4-chlorophenyl)-2-(2-methoxypyrimidin-5-yl)-3-methyl-5,6-dihydropyrrolo[3,4-c]pyrazol-4(2H)-one] | >10000 | –
82 | 658 | Cc1cc(N2C(=O)c3c(C4CC4)nn(-c4ccnn4C)c3C2c2ccc(Cl)cc2)cn(C)c1=O (stereo not drawn) [Example 5, 6-(4-chlorophenyl)-3-cyclopropyl-5-(1,5-dimethyl-6-oxo-1,6-dihydropyridin-3-yl)-1-(1-methyl-1H-pyrazol-5-yl)-5,6-dihydropyrrolo[3,4-c]pyrazol-4(1H)-one] | >10000 | –
89 | 278 | Cc1cc(N2C(=O)c3c(C4CC4)nn(-c4ccnn4C)c3[C@H]2c2ccc(Cl)cc2)cn(C)c1=O [Example 22, (R)-6-(4-chlorophenyl)-3-cyclopropyl-5-(1,5-dimethyl-6-oxo-1,6-dihydropyridin-3-yl)-1-(1-methyl-1H-pyrazol-5-yl)-5,6-dihydropyrrolo[3,4-c]pyrazol-4(1H)-one] | >10000 | –
52 | 404 | COc1ncc(-n2nc(C)c3c2C(c2ccc(Cl)cc2)N(c2cc(C)c(=O)n(C)c2)C3=O)cn1 (stereo not drawn) [Example 21a, 6-(4-chlorophenyl)-5-(1,5-dimethyl-6-oxo-1,6-dihydropyridin-3-yl)-1-(2-methoxypyrimidin-5-yl)-3-methyl-5,6-dihydropyrrolo[3,4-c]pyrazol-4(1H)-one] | >10000 | –
52 | 174 | COc1ncccc1-n1nc2c(c1C)C(=O)N(c1cc(C)c(=O)n(C)c1)[C@@H]2c1ccc(Cl)cc1 [Example 26, (R)-6-(4-chlorophenyl)-5-(1,5-dimethyl-6-oxo-1,6-dihydropyridin-3-yl)-2-(2-methoxypyridin-3-yl)-3-methyl-5,6-dihydropyrrolo[3,4-c]pyrazol-4(2H)-one] | >10000 | –
24 | 548 | COc1ncccc1-n1nc2c(c1C)C(=O)N(c1cc(Cl)c(=O)n(C)c1)C2c1ccc(Cl)cc1 (stereo not drawn) [Example 7b, 5-(5-chloro-1-methyl-6-oxo-1,6-dihydropyridin-3-yl)-6-(4-chlorophenyl)-2-(2-methoxypyridin-3-yl)-3-methyl-5,6-dihydropyrrolo[3,4-c]pyrazol-4(2H)-one] | >10000 | –
47 | 103 | Cc1cc(N2C(=O)c3c(C4CC4)n[nH]c3[C@H]2c2ccc(Cl)cc2)cn(C)c1=O [Example 24, (R)-6-(4-chlorophenyl)-3-cyclopropyl-5-(1,5-dimethyl-6-oxo-1,6-dihydropyridin-3-yl)-5,6-dihydropyrrolo[3,4-c]pyrazol-4(1H)-one] | >10000 | –
52 | 197 | COc1ncccc1-c1nn(C)c2c1C(=O)N(c1cc(C)c(=O)n(C)c1)[C@@H]2c1ccc(Cl)cc1 [Example 16, (R)-6-(4-chlorophenyl)-5-(1,5-dimethyl-6-oxo-1,6-dihydropyridin-3-yl)-3-(2-methoxypyridin-3-yl)-1-methyl-5,6-dihydropyrrolo[3,4-c]pyrazol-4(1H)-one] | >10000 | –
39 | 149 | CCOc1ncccc1-n1nc2c(c1C)C(=O)N(c1cc(C)c(=O)n(C)c1)C2c1ccc(Cl)cc1 (stereo not drawn) [Example 18b, 6-(4-chlorophenyl)-5-(1,5-dimethyl-6-oxo-1,6-dihydropyridin-3-yl)-2-(2-ethoxypyridin-3-yl)-3-methyl-5,6-dihydropyrrolo[3,4-c]pyrazol-4(2H)-one] | >10000 | –
65.5 | 640 | COc1ncccc1-c1nn(C)c2c1C(=O)N(c1cc(C)c(=O)n(C)c1)C2c1ccc(Cl)cc1 (stereo not drawn) [Example 15, 6-(4-chlorophenyl)-5-(1,5-dimethyl-6-oxo-1,6-dihydropyridin-3-yl)-3-(2-methoxypyridin-3-yl)-1-methyl-5,6-dihydropyrrolo[3,4-c]pyrazol-4(1H)-one] | >10000 | –
34 | 127 | Cc1nn(C2CC2)c2c1C(=O)N(c1cc(C)c(=O)n(C)c1)C2c1ccc(Cl)cc1 (stereo not drawn) [Example 11, 6-(4-chlorophenyl)-1-cyclopropyl-5-(1,5-dimethyl-6-oxo-1,6-dihydropyridin-3-yl)-3-methyl-5,6-dihydropyrrolo[3,4-c]pyrazol-4(1H)-one] | >10000 | –

Structure (SMILES) | IC50 (BRD3 (His-Brd3(20-477))) [nM] | GI50 (K-562 cells; Homo sapiens, K562, 96 h) [nM] | K-562 TGI (K-562 cells) [nM] | GI50 (K-562 cells) [nM]
COc1ncccc1-n1nc(C)c2c1[C@@H](c1ccc(Cl)cc1)N(c1cc(C)c(=O)n(C)c1)C2=O [Example 25, (R)-6-(4-chlorophenyl)-5-(1,5-dimethyl-6-oxo-1,6-dihydropyridin-3-yl)-1-(2-methoxypyridin-3-yl)-3-methyl-5,6-dihydropyrrolo[3,4-c]pyrazol-4(1H)-one] | 64 | 206 | >10000 | –
CNC1=C(C(=N)C2CC2)C(=O)N(c2cc(C)c(=O)n(C)c2)[C@@H]1c1ccc(Cl)cc1 [Example 2] | 20 | – | >10000 | 121
